# Source: BindingDB's records for patent US10626112 (Ea Pharma, 2020)
# Molecular target: Transient receptor potential cation channel subfamily A member 1 (Homo sapiens, UniProt O75762)
# Experiment: Measurement of TRPA1 Antagonist Activity
# Protocol: The test substance was dissolved in dimethyl sulfoxide and serially diluted with an assay buffer containing 0.1% bovine serum albumin (1×HBSS, 20 mM HEPES, pH 7.2) to a 4.8-fold concentration of the evaluation concentration. Allylisothiocyanate, which is a known TRPA1 activator, was dissolved in dimethyl sulfoxide to 100 mM, and further diluted 5-fold (100 μM) of the final concentration, like the test substance.
# Transient receptor potential cation channel subfamily A member 1, sequence (O75762 whole entry): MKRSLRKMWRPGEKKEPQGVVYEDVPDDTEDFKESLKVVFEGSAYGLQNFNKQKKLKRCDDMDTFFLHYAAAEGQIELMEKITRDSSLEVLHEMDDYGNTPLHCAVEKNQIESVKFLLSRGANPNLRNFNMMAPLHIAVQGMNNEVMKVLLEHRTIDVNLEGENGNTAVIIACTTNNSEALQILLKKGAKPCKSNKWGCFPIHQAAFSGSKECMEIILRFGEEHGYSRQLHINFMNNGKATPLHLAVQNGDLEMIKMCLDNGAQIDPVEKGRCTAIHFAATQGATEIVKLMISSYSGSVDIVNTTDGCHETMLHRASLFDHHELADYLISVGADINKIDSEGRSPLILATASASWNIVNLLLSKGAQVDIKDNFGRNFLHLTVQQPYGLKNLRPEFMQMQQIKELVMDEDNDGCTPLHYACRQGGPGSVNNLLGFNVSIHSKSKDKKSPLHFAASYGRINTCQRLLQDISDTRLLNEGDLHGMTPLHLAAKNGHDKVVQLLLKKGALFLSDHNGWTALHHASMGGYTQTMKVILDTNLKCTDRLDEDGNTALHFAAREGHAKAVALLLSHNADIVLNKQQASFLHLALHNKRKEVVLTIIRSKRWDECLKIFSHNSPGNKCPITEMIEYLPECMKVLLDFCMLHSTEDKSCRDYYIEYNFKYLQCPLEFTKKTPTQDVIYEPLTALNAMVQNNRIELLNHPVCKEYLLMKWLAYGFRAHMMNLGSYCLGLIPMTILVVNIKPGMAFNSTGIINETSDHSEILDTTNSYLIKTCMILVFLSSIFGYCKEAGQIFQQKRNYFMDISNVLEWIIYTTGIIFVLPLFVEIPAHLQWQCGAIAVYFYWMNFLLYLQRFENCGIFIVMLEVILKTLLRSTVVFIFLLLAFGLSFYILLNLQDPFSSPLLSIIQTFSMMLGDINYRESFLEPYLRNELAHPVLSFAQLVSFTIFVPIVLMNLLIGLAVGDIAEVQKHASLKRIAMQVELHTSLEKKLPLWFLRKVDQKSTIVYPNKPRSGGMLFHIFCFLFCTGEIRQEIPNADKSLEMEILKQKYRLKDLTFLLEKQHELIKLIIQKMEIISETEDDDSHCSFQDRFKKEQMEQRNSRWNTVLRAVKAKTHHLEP
row,IC50,SMILES
1,110 nM,"CC(C)OCCN(CC(=O)NCc1cc(-c2ccc(C(F)(F)F)cc2)ncn1)S(=O)(=O)c1cc2cc(F)ccc2o1 [US10626112, Example 358]"
2,410 nM,"CC(C)(C)OC[C@H](NS(=O)(=O)c1cc2cc(F)ccc2o1)C(=O)NCc1cc(-c2ccc(C(F)(F)F)cc2)ncn1 [US10626112, Example 415]"
3,410 nM,"O=C(CN(Cc1ccccc1)S(=O)(=O)c1cc2cc(F)ccc2o1)NCc1cc(-c2ccc(C(F)(F)F)cc2)ncn1 [US10626112, Example 352]"
4,190 nM,"O=C(CN(CC1CCNC1)S(=O)(=O)c1cc2cc(F)ccc2o1)NCc1cc(-c2ccc(C(F)(F)F)cc2)ncn1 (centres undefined) [US10626112, Example 425]"
5,190 nM,"CC(C)OCCN(CC(=O)NCc1cc(-c2ccc(C(F)(F)F)cn2)ccn1)S(=O)(=O)c1cc2cc(F)ccc2o1 [US10626112, Example 356]"
6,470 nM,"O=C(CN(Cc1cnccn1)S(=O)(=O)c1cc2cc(F)ccc2o1)NCc1cc(-c2ccc(C(F)(F)F)cc2)ncn1 [US10626112, Example 361]"
7,380 nM,"O=C(CN(Cc1ncco1)S(=O)(=O)c1cc2cc(F)ccc2o1)NCc1cc(-c2ccc(C(F)(F)F)cc2)ncn1 [US10626112, Example 354]"

# More lines, now with the values behind:
row,SMILES,IC50
1,"O=C(NCc1ccnc(-c2ccc(COCC(F)(F)F)nc2)c1)[C@@H]1CCCN1S(=O)(=O)c1cc2ccccc2o1 [US10626112, Example 331]",170 nM
2,"O=C(CN(Cc1ccccc1)S(=O)(=O)c1cc2cc(F)ccc2o1)NCc1cc(-c2ccc(C(F)(F)F)cn2)ccn1 [US10626112, Example 350]",630 nM
3,"O=C(NCc1cccc(CSc2ccc(C(F)(F)F)cc2)c1)[C@@H]1CCCN1S(=O)(=O)c1cc2ccccc2o1 [US10626112, Example 299]",24 nM
4,"O=C(NCc1cc(-c2ccc(C(F)(F)F)cc2)ncn1)[C@@H]1CCCN1S(=O)(=O)c1cc2ccncc2o1 [US10626112, Example 347]",74 nM
5,"O=C(NCc1cccc(OCc2ccc(N3CCOCC3)nc2)c1)[C@@H]1CCCN1S(=O)(=O)c1cc2cc(F)ccc2o1 [US10626112, Example 22]",110 nM
6,"COCCN(CC(=O)NCc1cc(-c2ccc(C(F)(F)F)cn2)ccn1)S(=O)(=O)c1cc2cc(F)ccc2o1 [US10626112, Example 355]",100 nM
7,"O=C(CN(Cc1ncco1)S(=O)(=O)c1cc2cc(F)ccc2o1)NCc1cc(-c2ccc(C(F)(F)F)cn2)ccn1 [US10626112, Example 351]",990 nM
